Values of other authors in patent US7364905B2, “Apparatus and method for high throughput analysis of compound-membrane interactions” (TechElan, LLC, priority 2001, dated 2008).

System: Caco-2 cells
Conditions: Caco-2 cell mono-layer versus gut

Q: Which “rate of permeation through the cell mono-layer relative to through the gut” value does the source give for `OC[C@@H](O)[C@@H](O)[C@H](O)[C@H](O)CO` [mannitol] here?
A: fifty to three hundred and sixty times lower
